Measurements: patent US20250382250A1, “STILBENE DERIVATIVE AS AHR AGONIST AND USE THEREOF” (NANJING GRITPHARMACO., LTD., priority 2022, published 2025)
Marks after values point to notes of the source that are not given here.

Experiments:
DSS-induced colitis = DSS-induced colitis mouse model; type: in vivo, C57BL/6 mice; details: 10 mg/kg intragastric, DSS 2.5% 8 days; for effect on colon length: day 9
Protocol: • (1) Animals: 40 C57BL/6 mice, male, aged 8 weeks, 22-24 g • (2) Materials: […] Biomedicals, USA, Cat. No. […] Tween 80; Wahaha purified water • (3) Procedures: […] The solution was inspected daily and replaced with fresh DSS solution when necessary. On day one after modeling, the treatment was given. […] On day 9, the mice were sacrificed, and the blood and colon were collected. The colon length, occult blood in the cecal contents, and other conditions were also recorded. Test compound formulation: 1.00 mg of compound powder was dissolved in 20 μL of DMSO completely. Then, 20 μL of Tween 80 was added, and the mixture was well mixed. 0.96 mL of Wahaha purified water was added, and the mixture was well mixed to give a 1 mg/mL solution, which was administered at a dose of 0.1 mL/10 g (body weight). Solvent: 20 μL of DMSO, 20 μL of Tween 80, and 0.96 mL of Wahaha purified water were mixed well (used in the modeling group).

atopic dermatitis = assay: DNFB-induced atopic dermatitis mouse model (AD Score); type: in vivo, BALB/C mice; design: scale not given here; details: DNFB mice
Protocol: 56 clean-grade BALB/C mice aged 6-8 weeks were subjected to 5 days of adaptive feeding and then randomized into 7 groups of 8 mice each: • A. Blank control group • B. Modeling+solvent group • C. Modeling+blank matrix group • D. Modeling+positive drug mometasone furoate group • E. Modeling+1 wt % of benvitimod group • F. […] The animal experiments were conducted in accordance with the Experimental Animal Feeding, Management and Use Guidelines of China Pharmaceutical University and in compliance with animal study ethics and regulations. As shown in the above procedures, the solvent control or DNFB was given in the morning for modeling; from day 5, the test compound ointment was administered once every afternoon at 50 mg/dose evenly on the skin surface. The specific administration method is as shown above; Specific procedures: […] Severity of atopic dermatitis was scored using the AD Score criteria The severity of the appearance of dermatitis was evaluated based on 4 indicators: A. erythema/bleeding; B. dryness; C. effusion/crusting; D. edema.

IL4 = assay: Regulatory effect on cytokine secretion in PHA-stimulated PBMCs: IL4; type: cell-based; details: for IL4: PBMCs, 15 μg/mL PHA, 24 h (PHA group 9.42)
Protocol: (§1) • (1) Cells: […]; • (2) Cell plating and treatment: After the PBMCs were taken out from the liquid nitrogen tank and thawed, 80 μL of culture medium was added to a 96-well plate, and the cells were added at 200,000 cells/well. The culture media containing 2 μM or 0.2 μM compound 2 #, compound 6 #, or reference 1 # were added to the 96-well plate at 80 μL, at a final drug concentration of 1 μM or 0.1 μM per well. The plate was let stand for 1 h for pretreatment. After the pretreatment, the drug-containing medium was discarded, and 1 μM or 0.1 μM solution containing 15 μg/mL PHA (phytohemaggluyinin) was added at 80 μL/well. After 24 h of stimulation, the content of cytokines in the culture medium was detected. • Blank control group: The cells were treated with a normal culture medium with no drugs; • PHA group: A culture medium containing 15 μg/mL PHA but no compounds of the present disclosure was added at 80 μL/well.

TNFa = assay: Regulatory effect on cytokine secretion in PHA-stimulated PBMCs: TNFa; type: cell-based; details: for TNFa: PBMCs, 15 μg/mL PHA, 24 h (PHA group 3649.21)
Protocol: as §1

AhR = molecular target: T1, AhR (Homo sapiens, UniProt P35869); assay: AhR agonism luciferase reporter gene assay in transfected HepG2 cells; type: cell-based; details: 16 h, ratio of treatment group to blank
T1 construct: expressed in transfected cells; host or cells: HepG2
T1 sequence (P35869 11-848): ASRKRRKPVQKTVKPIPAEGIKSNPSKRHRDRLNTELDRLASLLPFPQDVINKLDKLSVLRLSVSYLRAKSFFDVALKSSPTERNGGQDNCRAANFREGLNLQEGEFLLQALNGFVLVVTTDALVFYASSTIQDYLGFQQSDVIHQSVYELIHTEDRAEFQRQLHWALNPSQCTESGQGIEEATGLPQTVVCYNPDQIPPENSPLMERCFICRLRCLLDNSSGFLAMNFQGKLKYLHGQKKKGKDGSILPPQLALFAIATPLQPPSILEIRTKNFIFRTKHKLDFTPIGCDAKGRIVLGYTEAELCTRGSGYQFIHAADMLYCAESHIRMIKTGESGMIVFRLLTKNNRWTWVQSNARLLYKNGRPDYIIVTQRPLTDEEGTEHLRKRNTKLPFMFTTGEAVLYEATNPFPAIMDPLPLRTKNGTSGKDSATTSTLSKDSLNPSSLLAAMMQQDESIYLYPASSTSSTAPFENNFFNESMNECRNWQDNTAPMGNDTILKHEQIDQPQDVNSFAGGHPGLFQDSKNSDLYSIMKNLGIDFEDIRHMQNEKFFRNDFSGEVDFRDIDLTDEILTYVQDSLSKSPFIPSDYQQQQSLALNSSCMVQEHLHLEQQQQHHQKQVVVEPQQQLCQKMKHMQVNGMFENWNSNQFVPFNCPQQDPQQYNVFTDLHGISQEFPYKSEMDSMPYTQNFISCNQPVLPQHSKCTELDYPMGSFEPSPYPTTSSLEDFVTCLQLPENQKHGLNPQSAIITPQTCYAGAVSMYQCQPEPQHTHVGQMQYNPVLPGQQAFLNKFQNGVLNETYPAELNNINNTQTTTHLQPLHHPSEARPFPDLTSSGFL
Protocol: When the cell confluence reached 80%, the culture medium was replaced with a fresh one, and the transfection working solution was added for transfection overnight. The formula of the working solution is as follows: 1 mL of Opti-MEM+7.5 μg of pCMV-AHR+7.5 μg of pTK-3×DRE-Luc+30 μL of lipo6000. • (2) Cell plating: The transfected cells were digested, prepared into a cell suspension at a concentration of 3×10^5 cells/mL, and then plated on a 96-well plate at 100 µL/well for adherent culture overnight. • (3) Formulation
The prepared drug-containing culture media and a blank culture medium were added to the 96-well plate described above at 100 μL/well.

[1] = day 0, before ointment treatment (from day 5)
[2] = day 4, before ointment treatment (from day 5)
[3] = day 6, ointment 50 mg once daily from day 5 (1.2 wt % 2#/6#, 1 wt % benvitimod)
[4] = day 8, ointment 50 mg once daily from day 5 (1.2 wt % 2#/6#, 1 wt % benvitimod)
[5] = day 10, ointment 50 mg once daily from day 5 (1.2 wt % 2#/6#, 1 wt % benvitimod)

Row | AhR receptor agonistic fold (AhR; drug concentration 0.1 μM) [fold] | AhR receptor agonistic fold (AhR; drug concentration 1 μM) [fold] | Structure (SMILES) | disease activity indicator (body weight change and hematochezia) (DSS-induced colitis) | effect on colon length (DSS-induced colitis) | Back AD score (atopic dermatitis; [1]) | Back AD score (atopic dermatitis; [2]) | Back AD score (atopic dermatitis; [3]) | Back AD score (atopic dermatitis; [4]) | Back AD score (atopic dermatitis; [5]) | IL4 (IL4; 0.1 μM) [pg/mL] | inhibitory effect on IL4 relative to reference 1# (benvitimod) (IL4; 1 μM) [folds] | IL4 (IL4; 1 μM) [pg/mL] | TNFa (TNFa; 0.1 μM) [pg/mL] | inhibitory effect on TNFa relative to reference 1# (benvitimod) (TNFa; 1 μM) [folds] | TNFa (TNFa; 1 μM) [pg/mL]
1 | 6.6 ± 0.1 | 25.9 ± 0.4 | Oc1cc(/C=C/c2ccc(F)cc2)cc(O)c1C1CCCCC1 [Compound 6, (E)-2-cyclohexyl-5-(4-fluorostyryl)-1,3-benzenediol] | a more significant effect | superior to that in the reference 1 #benvitimod group | 0.00 ± 0.00 | 3.50 ± 0.35 | 5.56 ± 1.45 | 6.69 ± 1.64**^a | 5.44 ± 1.13**^aab | 4.62 | 2 | 2.75 | 1433.29 | 2 | 810.71
2 | 3.2 ± 1.2 | 10.6 ± 1.0 | CC(C)c1c(O)cc(/C=C/c2ccccc2)cc1O [Reference 1#, Benvitimod, reference compound] | good therapeutic effects | the conditions were improved | 0.00 ± 0.00 | 3.63 ± 0.78 | 7.44 ± 1.07 | 7.19 ± 1.14 | 6.81 ± 1.00 | 9.30 | – | 5.63 | 2559.02 | – | 2426.93
